The subject of assay [1] is benzodiazepine receptor. To be noted: rat receptor material, cited from earlier work.
Assay [2] deals with T1, benzodiazepine receptor.
T1 construct: IC50; other: FLB as labeled ligand, 7.3 nM; Bmax; other: saturation with FLB; other: [3H]flunitrazepam as labeled ligand, 2.2 nM; other: FLB assay concentration 7.3 nM; recov
The assay can be described thus: Fluorescent receptor assay for benzodiazepines, calibration curves with FLB as labeled ligand. In kind it is binding, calf. To be noted: 7.3 nM.

The target in assay [3] is T1, benzodiazepine receptor. The assay can be described thus: Radioligand binding assay with [3H]flunitrazepam. Also on record: species or system calf. Here is the method:
Calf brains, obtained from the slaughtcrhouse and stored at −80° C. after discarding the cerebellum, were homogenized in 6 volunmes (w/v) of ice-cold 0.32 M sucrose in a Potter-Elvehjem homogenizer (RW 20 DZW. Janke & Kunkel K G, Staufen i. Breisgau, Germany) fitted with a teflon pestle and centrifuged for 10 min at 1,000 ×g in a Beckman L8-55 Ulcracentrifuge (Beckman Instruments, Mijdrecht, The Netherlands). The supernatant was centrifuged for 60 min at 100,000×g. The resulting pellet (P2) was resuspended in sodium phosphate buffer (pH 7.4; 50 mM) and centrifuged for 30 min at 100,000×g. This washing step was repeated four times. All operations were performed at 4° C. […]
The filters of a MultiScreen-FB filtration plate were pre-wetted by pipetting 200 μl ice-cold Tris-HCl buffer (pH 7.4; 50 mm) into each well. […] After shaking the vials, the radioactivity was counted for 5 min in a Tri-Carb 4000 Packard scintillation counter (Canberra Packard, Groningen, The Netherlands). […]
The saturation and inhibition curves for both the radioactive labeled benzodiazepine [^3H]flunitrazepam and the fluorescent labeled benzodiazepine. […] The specific binding was calculated by subtracting the non-specific binding from the total binding. […] The Bmax value was calculated to be 3.42±0.01 nM, which corresponds to 3.84±0.09 pM/mg protein. […]

The target of assay [4] is benzodiazepine receptor. To be noted: cited from earlier work.
Assay [5] has as its system benzodiazepine receptor. Description: Fluorescent binding assay, saturation experiments with FLB. Also on record: species or system calf. The following applies: free initial concentration of 15 nM. Here is the method: (§1) Calf brains, obtained from the slaughtcrhouse and stored at −80° C. after discarding the cerebellum, were homogenized in 6 volunmes (w/v) of ice-cold 0.32 M sucrose in a Potter-Elvehjem homogenizer (RW 20 DZW. Janke & Kunkel K G, Staufen i. Breisgau, Germany) fitted with a teflon pestle and centrifuged for 10 min at 1,000 ×g in a Beckman L8-55 Ulcracentrifuge (Beckman Instruments, Mijdrecht, The Netherlands). The supernatant was centrifuged for 60 min at 100,000×g. The resulting pellet (P2) was resuspended in sodium phosphate buffer (pH 7.4; 50 mM) and centrifuged for 30 min at 100,000×g. This washing step was repeated four times. All operations were performed at 4° C. The washed P2-pellet was resuspended in 5 volumes (w/v) phosphate buffer, frozen with liquid nitrogen and lyophilized (Hetosicc CD 52-1, Heto, Birkerød, Denmark) . rhe lyophilized P2-pellet was stored at −20° C. For the receptor binding assays, the lyophilized P2-pellet was resuspended in Tris-HCl buffer (pH 7.4; 50 mM) with the glass-teflon Potter homogenizer (3.5 mg/inl).
(§2) For the saturation experiments, 25 μl FLB solution (0.5-50 nM final concentration) in Tris-HCl buffer (pH 7.4; 50 mM) were pipetted in duplicate in the wells of the filtration plate after pre-wetting the filters. […] To this mixture, 200 μl of the receptor suspension (225 μg protein per assay) were added and the plate was shaken for 1 min. […] Hundred μl of the filtrates were analyzed with the above described HPLC-method.
(§3) The saturation and inhibition curves for both the radioactive labeled benzodiazepine [^3H]flunitrazepam and the fluorescent labeled benzodiazepine. […] The specific binding was calculated by subtracting the non-specific binding from the total binding. […] The Bmax value was calculated to be 3.42±0.01 nM, which corresponds to 3.84±0.09 pM/mg protein. […] After binding of BD 623 to the receptor, the fluorescence intensity is decreased and from the level of fluorescence quenching the amount of bound BD 623 can be estimated. […]

Assay [6] concerns T1, benzodiazepine receptor. Described as above. Also on record: species or system calf. As for the experimental part: as §1, §2, §3
Assay [7] has as its target benzodiazepine receptor. Description: Affinity for the benzodiazepine receptor, method not described. To be noted: FIG. 1 legend. Format: binding.
Assay [8] addresses benzodiazepine receptor. To be noted: McCabe et al. [h]; cited from earlier work.

As usually defined, the IC50 is the concentration needed to halve the response being measured. By Ki is commonly meant a measure of affinity in units of concentration, obtained from inhibition or displacement. The term Kd denotes the free concentration of one partner at which half of the binding sites on the other are occupied at equilibrium, for simple one-to-one binding.

Read-outs that look alike come from different tables or passages of the source.

Turning to `CCOC(=O)c1ncn2c1CN(C)C(=O)c1cc(F)ccc1-2` [[^3H]flumazenil], the Bmax in the assay with benzodiazepine receptor [1] (filtration) is reported as 2.3 nM. `CN1C(=O)CN=C(c2ccccc2)c2cc(Cl)ccc21` [diazepam] returned a 50% inhibitory concentration (IC50) at benzodiazepine receptor [2] of 41 ± 7 nM. `O=C1Nc2ccc(Cl)cc2C(c2ccccc2Cl)=NC1O` (stereo not shown) [lorazepam]: the IC50 against benzodiazepine receptor [2] is 7.2 ± 0.5 nM; on benzodiazepine receptor [3] ([3H]flunitrazepam as labeled ligand, 2.2 nM), 6.61 ± 0.69 nM. Consider “AMCA-didesethylflurazepam [AMCA-Ro7-1986]”, for which the Ki at benzodiazepine receptor [4] (from reference [b]) was 8.6 nM. Besides, in the assay with benzodiazepine receptor [4] (reference [b]), the non-specific binding was 20%. For the compound Mmc-O—CO—(CH2)3-Ro15-3890 [FLB], in the assay on benzodiazepine receptor [5], the “non-specific binding, % of the total binding” value came out at 25%. In addition, in the assay on benzodiazepine receptor [6] (FLB assay concentration 7.3 nM), the “added FLB bound to the receptors (total binding)” value worked out at 26%. Besides, the Kd at benzodiazepine receptor [6] (saturation curve, one-binding site model, read-out: binding affinity (Kd) for the benzodiazepine receptor) is about 7.3 nM. Moreover, the inhibition constant Ki at benzodiazepine receptor [3] (read-out: Ki-value, inhibition assays with [3H]flunitrazepam) came to 6.5 nM. As to NBD-NH—(CH2)3-Ro15-3890 [BD 623], the Ki at benzodiazepine receptor [7] came to 5.7 nM. The Bmax in the assay on benzodiazepine receptor [1] (fluorescence quenching, no bound/unbound separation) is 7.2 nM. Turning to “fluorescein-NH—(CH2)3-Ro15-3890 [BD 621]”, on benzodiazepine receptor [8], the dissociation constant (Kd) is 63 nM.

(Values after patent US6465259B1, “Non radioactive receptor assay suitable for quantitative and qualitative analysis of trace amounts of receptor binding analyte” (Merska B.V., priority 1999, dated 2002).)
